Reference: US9670550B2, “Method for examination of carcinogenic risk” (JAPANESE FOUNDATION FOR CANCER RESEARCH, priority 2013, dated 2017)

Legend:
liver cancer [1] = assay: Liver cancer development in mice fed high-fat diets and given antibiotic cocktail, with oral deoxycholic acid; assay type: in vivo; conditions: 40 μg/g body weight orally three times a week, high-fat diet + antibiotic cocktail
Description: From the 13th week after the start of the raising, the antibiotic cocktail was administered to mice fed high-fat diets, which were then further raised. To these mice, 40 μg/g body weight of deoxycholic acid (DCA) or only a vehicle as a control was orally administered three times a week (FIG. 5A). […] The cancer was rarely developed in the control mouse group given only the vehicle, and even if the cancer was developed, its tumor size was small. On the other hand, the deoxycholic acid administration group had multiple cancer (25 or more tumors per individual), and also, its size was large.

gut microbiota = assay: Gut microbiota analysis of feces by PCR of 16S rRNA gene; assay type: in vivo, mice
Description: In this Example, in order to search for an intestinal bacterium related to cancer development, how the gut microbiota was atlered was analyzed (FIG. 4). In the experimental schedule shown in FIG. 3A, 3 groups were used: a group fed normal diets, a group fed high-fat diets, and a group fed high-fat diets and also given vancomycin. At the 30th week after the start of the raising, their feces were recovered, and the gut microbiota was analyzed.
The gut microbiota was identified by PCR analysis (Non Patent Literatures 11 and 12). Specifically, DNA was extracted from the feces and purified. The gene encoding 16S rRNA in many types of bacteria was amplified by PCR using universal primers. The V1-V4 hypervariable regions were further amplified, followed by identification.

liver cancer [2] = assay: Liver cancer development in DMBA-treated mice fed high-fat diets, antibiotic given in drinking water; assay type: in vivo; conditions: high-fat diet, antibiotic in drinking water from 13 weeks old, dissected at the 30th week
Text: An acetone solution containing 0.5% of the carcinogenic substance DMBA (7,12-dimethylberiz[a]anthracene) was applied once to the backs of wild-type (C57BL/6) neonatal mice. The neonatal mice were raised together with their mother mouse by feeding with normal diets (ND) or high-fat diet (HFD) until 4 weeks old. The high-fat diets used were D12492 (Rodent Diet with 60% kcal % Fat; Research Diets, Inc., USA). The neonatal mice were weaned at 4 weeks old and subsequently raised with normal diets or high-fat diet. At 30 weeks old, their livers and lungs were excised, and the presence or absence of cancer development was analyzed. The average body weight of the mice at the time of dissection was 33 g for the mice fed normal diets and 51 g for the mice fed high-fat diets. The mice fed high-fat diets had approximately 1.5 times the body weights of the mice fed normal diets.
DMBA was applied to wild-type neonatal mice, followed by high-fat diet feeding. From 13 weeks old, an antibiotic cocktail (4Abx, antibiotic cocktail administration group) or vancomycin (VCM, vancomycin administration group) mixed with drinking water was administered to the mice. At the 30th week after the start of the raising, their livers were excised, and liver cancer development was analyzed. […]
The mice of each group were dissected at the 30th week, and liver cancer development was analyzed (FIGS. 3C and 3D).

intestinal bacteria = assay: Level of gene encoding intestinal bacterial 16S rRNA after antibiotic administration; assay type: in vivo; conditions: 17 weeks after antibiotic administration, 30 weeks after birth; high-fat diet; in drinking water; 3 mice per group
Description: DMBA was applied to wild-type neonatal mice, followed by high-fat diet feeding. From 13 weeks old, an antibiotic cocktail (4Abx, antibiotic cocktail administration group) or vancomycin (VCM, vancomycin administration group) mixed with drinking water was administered to the mice. At the 30th week after the start of the raising, their livers were excised, and liver cancer development was analyzed. On the other hand, the raising of a control group was continued in the same way as the aforementioned raising up to the 13th week. The antibiotic cocktail contained ampicillin (1 g/l), neomycin (1 g/l), metronidazole (1 g/l), and vancomycin (500 mg/l). In the case of administering vancomycin alone, 500 mg/l vancomycin was administered.

SMILES | liver tumor size (liver cancer [1]; n=3) | tumor number per individual (liver) (liver cancer [1]; n=3) | liver tumor development (liver cancer [1]; vs vehicle) | Gram-negative microbiota, proportion on average (gut microbiota; HFD+VCM group, average (FIG. 4)) | cluster XI of the genus Clostridium in gut microbiota (gut microbiota; feces at the 30th week, high-fat diets + vancomycin, n=2) | liver cancer development (tumor number and size) as compared with the control (liver cancer [2]) | amount of intestinal bacteria (level of gene encoding intestinal bacterial 16s rRNA) (intestinal bacteria)
C[C@H](CCC(=O)O)[C@H]1CC[C@H]2[C@@H]3CC[C@@H]4C[C@H](O)CC[C@]4(C)[C@H]3C[C@H](O)[C@]12C [deoxycholic acid] | large | ≥ 25 tumors per individual | developed a large number of liver tumors | – | – | – | –
CN[C@H](CC(C)C)C(=O)N[C@H]1C(=O)N[C@@H](CC(N)=O)C(=O)N[C@H]2C(=O)N[C@H]3C(=O)N[C@H](C(=O)N[C@H](C(=O)O)c4cc(O)cc(O)c4-c4cc3ccc4O)[C@H](O)c3ccc(c(Cl)c3)Oc3cc2cc(c3O[C@@H]2O[C@H](CO)[C@@H](O)[C@H](O)[C@H]2O[C@H]2C[C@](C)(N)[C@H](O)[C@H](C)O2)Oc2ccc(cc2Cl)[C@H]1O [vancomycin] | – | – | – | 99% | 0% | developed no liver cancer or developed liver cancer with a smaller tumor number and a smaller size | decreased into a very small level
